The target in data set [1] is T1, 5-hydroxytryptamine receptor 2C (Homo sapiens, UniProt P28335).
T1 sequence (P28335 whole entry): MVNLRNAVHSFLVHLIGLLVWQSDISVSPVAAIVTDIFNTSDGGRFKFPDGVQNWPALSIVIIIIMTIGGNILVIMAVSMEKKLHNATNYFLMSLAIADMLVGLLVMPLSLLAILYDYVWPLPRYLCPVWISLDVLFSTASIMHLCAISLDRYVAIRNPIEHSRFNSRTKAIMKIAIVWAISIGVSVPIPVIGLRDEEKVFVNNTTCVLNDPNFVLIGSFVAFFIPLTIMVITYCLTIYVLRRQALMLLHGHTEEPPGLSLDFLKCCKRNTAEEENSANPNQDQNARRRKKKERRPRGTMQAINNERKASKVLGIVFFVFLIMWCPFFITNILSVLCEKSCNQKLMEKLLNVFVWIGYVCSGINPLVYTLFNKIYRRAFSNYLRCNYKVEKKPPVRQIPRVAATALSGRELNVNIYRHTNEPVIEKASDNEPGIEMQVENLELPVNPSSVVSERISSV
Kind of data set: Inhibition of 5-HT2C (unknown origin).

Data set [2] concerns the target T2, Alpha-2B adrenergic receptor (Homo sapiens, UniProt P18089).
T2 sequence (P18089 whole entry): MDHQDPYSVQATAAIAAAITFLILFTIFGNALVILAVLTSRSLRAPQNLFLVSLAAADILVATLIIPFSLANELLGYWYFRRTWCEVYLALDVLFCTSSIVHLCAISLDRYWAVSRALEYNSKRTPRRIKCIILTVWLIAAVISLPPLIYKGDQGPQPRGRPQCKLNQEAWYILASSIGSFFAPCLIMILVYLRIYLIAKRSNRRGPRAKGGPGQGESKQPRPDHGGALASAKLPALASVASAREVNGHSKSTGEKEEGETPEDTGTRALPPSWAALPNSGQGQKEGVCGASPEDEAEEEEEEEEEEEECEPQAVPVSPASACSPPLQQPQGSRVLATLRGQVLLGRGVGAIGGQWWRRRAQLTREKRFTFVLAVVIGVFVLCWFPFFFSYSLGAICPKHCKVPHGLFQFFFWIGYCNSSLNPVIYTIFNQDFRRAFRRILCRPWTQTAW
Kind of data set: Inhibition of alpha2B receptor (unknown origin).

The target in data set [3] is T3, Cytochrome P450 1B1 (Homo sapiens, UniProt Q16678).
T3 sequence (Q16678 whole entry): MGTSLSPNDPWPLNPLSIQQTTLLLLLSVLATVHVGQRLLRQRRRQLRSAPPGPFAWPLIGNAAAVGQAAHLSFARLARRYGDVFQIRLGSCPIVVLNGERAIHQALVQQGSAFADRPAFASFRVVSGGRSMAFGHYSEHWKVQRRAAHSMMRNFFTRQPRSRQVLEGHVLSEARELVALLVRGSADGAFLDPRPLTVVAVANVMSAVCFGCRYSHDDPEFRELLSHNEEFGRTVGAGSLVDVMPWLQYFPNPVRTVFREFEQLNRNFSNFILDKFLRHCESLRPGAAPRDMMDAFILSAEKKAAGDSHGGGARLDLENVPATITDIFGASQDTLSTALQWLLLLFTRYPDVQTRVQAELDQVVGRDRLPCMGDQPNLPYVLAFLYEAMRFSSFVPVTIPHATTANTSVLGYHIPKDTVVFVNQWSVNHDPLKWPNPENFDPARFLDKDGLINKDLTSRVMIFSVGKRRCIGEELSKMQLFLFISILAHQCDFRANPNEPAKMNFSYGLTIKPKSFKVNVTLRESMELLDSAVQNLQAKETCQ
The experiment in a line: Competitive inhibition of human recombinant CYP1B1 using 7-Ethoxyresorufin as substrate by Lineweaver-Burk plot analysis. It counts as ADME. To be noted: read-out: Ki(app).

The nature of data set [4]: Half-life in human at 20 mg via smoking measured after 0.05 to 72 hrs by gas chromatograph mass spectrometry. To be noted: in vivo, inhaled or intranasal, time 0.05-72 hrs. It counts as ADME.
The target in data set [5] is T4, Cytochrome P450 2A6 (Homo sapiens, UniProt P11509).
T4 sequence (P11509 whole entry): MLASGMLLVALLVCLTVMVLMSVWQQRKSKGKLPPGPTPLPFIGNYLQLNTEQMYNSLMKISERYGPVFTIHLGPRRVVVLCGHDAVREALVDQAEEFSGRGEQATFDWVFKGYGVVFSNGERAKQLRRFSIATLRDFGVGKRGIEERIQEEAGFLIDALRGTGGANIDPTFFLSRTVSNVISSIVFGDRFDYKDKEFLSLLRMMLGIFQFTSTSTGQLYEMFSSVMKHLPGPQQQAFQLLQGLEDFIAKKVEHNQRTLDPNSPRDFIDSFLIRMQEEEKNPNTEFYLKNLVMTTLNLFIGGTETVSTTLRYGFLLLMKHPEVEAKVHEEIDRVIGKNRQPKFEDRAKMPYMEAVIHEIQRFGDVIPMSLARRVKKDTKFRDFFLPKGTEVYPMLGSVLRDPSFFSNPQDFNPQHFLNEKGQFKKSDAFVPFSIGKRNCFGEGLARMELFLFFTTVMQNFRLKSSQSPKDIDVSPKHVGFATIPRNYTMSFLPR
Kind of data set: Non-competitive inhibition of human recombinant CYP2A6 expressed in baculovirus-infected insect cells using coumarin as substrate preincubated for 5 mins followed by NADPH-generating system addition by Lineweaver-Burk plot analysis. It counts as ADME.

In data set [6] the target is Cytochrome P450 3A7 (Homo sapiens, UniProt P24462). Kind of data set: Mixed type inhibition of human recombinant CYP3A7 expressed in baculovirus-infected insect cells using diltiazem as substrate incubated for 30 mins followed by NADPH-generating system addition by Michaelis-Menten plot analysis. The data set is classed as ADME.
Data set [7] addresses T5, Steroid 17-alpha-hydroxylase/17,20 lyase (Rattus norvegicus, UniProt P11715).
T5 sequence (P11715 whole entry): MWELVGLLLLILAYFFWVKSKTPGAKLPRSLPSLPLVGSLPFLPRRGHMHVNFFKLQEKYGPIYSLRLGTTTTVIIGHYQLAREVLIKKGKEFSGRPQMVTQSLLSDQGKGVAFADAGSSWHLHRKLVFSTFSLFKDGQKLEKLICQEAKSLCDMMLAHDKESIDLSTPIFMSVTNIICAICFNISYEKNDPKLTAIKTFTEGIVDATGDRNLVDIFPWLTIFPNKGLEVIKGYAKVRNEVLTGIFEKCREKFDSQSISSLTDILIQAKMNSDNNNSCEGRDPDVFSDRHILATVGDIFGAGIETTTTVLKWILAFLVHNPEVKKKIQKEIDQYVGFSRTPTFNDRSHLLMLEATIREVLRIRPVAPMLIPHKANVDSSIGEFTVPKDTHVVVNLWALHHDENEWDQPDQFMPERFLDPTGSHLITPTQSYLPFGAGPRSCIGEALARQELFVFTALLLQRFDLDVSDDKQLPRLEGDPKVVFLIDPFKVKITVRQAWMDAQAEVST
Kind of data set: Mixed type inhibition of CYP17 in Sprague-Dawley rat testis microsomes assessed as reduction in 17alpha-Hydroxylase activity in presence of NADPH-generating system incubated for 2 mins by Lineweaver-Burk plot analysis. It counts as ADME.

Data set [8] is described as follows: Toxicity in pig assessed as mean arterial blood pressure drop at 50 mg/kg, iv administered for 15 mins by pulse oximetry relative to baseline. The data set is classed as organism-based, Sus scrofa. The settings on record: in vivo, 0.25 h.
Data set [9] is described as follows: clinical. The settings on record: human, in vivo, other: aerosol spray, 20 mg.
Description: Elimination rate constant in human at 20 mg using aerosol spray measured for 6 weeks

Sequence of Cytochrome P450 3A7 (P24462 whole entry): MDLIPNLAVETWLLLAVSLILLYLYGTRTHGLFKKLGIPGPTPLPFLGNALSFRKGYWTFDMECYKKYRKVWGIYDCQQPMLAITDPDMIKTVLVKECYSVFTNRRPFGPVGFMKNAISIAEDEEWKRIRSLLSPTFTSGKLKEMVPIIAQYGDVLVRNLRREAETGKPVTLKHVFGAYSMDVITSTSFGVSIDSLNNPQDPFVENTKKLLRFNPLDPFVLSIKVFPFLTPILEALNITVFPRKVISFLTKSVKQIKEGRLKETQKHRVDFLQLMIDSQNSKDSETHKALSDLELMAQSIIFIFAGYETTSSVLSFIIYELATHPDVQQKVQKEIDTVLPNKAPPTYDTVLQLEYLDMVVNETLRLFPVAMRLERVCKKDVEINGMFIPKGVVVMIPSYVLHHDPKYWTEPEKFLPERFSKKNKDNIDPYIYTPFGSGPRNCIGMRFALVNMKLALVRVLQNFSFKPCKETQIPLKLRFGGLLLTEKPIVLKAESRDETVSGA

On to `C=C(C)[C@@H]1CCC(C)=C[C@H]1c1c(O)cc(CCCCC)cc1O` [CANNABIDIOL], for which the Ki in data set [1] was determined as 1.1 µM; in data set [2], 3.2 µM; in [3], 3.63 µM; in data set [5] it was 55 µM; in [6], 12.3 µM; in data set [7], 124 µM. Besides, the half-life (in general, the time needed for the level to fall by half in the phase considered) in data set [4] was 31 h. The Activity in data set [8] is on record as less than 70%. In data set [9], this molecule showed a k el at 1008 h of 0.000119 s⁻¹.

The record behind these values is ChEMBL document CHEMBL4680278 (J Med Chem, 2020).
